Assay results reported in US9957274B2, “Indane inhibitors of EED and methods of their use” (AbbVie Inc., priority 2016, dated 2018).

Legend:
EED = EED (Homo sapiens, UniProt O75530); assay: EED TR-FRET Binding Assay (modified LanthaScreen competition assay)
Method: Compounds were tested in a modified LanthaScreen competition assay.
The following buffer was used to set up the binding reactions: 20 mM Tris-HCl pH 7.5, 200 mM NaCl, 0.01% Tween-20, 10 uM DTT (dithiothreitol), and 0.05% BSA (bovine serum albumin), with the DTT and BSA added fresh prior to initiating the binding assay. […] The reactions were then incubated for 1 hour at 25° C. in a humidified chamber prior to detection on the Perkin Elmer Envision plate reader using a Lanthascreen TR-FRET protocol.

Pfeiffer cells = assay: CTG cell viability assay (CellTiter-Glo); assay type: cell-based; details: Homo sapiens, 240 h; Pfeiffer cells, 10 days with compound, CellTiter-Glo; read-out: Cell Proliferation IC50
Method: 1,000 cells were plated into each well of 96-well Corning CellBing cell culture plates and incubated overnight at 37° C. in a humidified CO2 incubator. […] The cell culture plates were then incubated for 10 more days. CTG cell viability assay was performed on the cell culture samples by using CellTiter-Glo® Luminescent Cell Viability Assay Kit (Promega).

EED, sequence (O75530 whole entry): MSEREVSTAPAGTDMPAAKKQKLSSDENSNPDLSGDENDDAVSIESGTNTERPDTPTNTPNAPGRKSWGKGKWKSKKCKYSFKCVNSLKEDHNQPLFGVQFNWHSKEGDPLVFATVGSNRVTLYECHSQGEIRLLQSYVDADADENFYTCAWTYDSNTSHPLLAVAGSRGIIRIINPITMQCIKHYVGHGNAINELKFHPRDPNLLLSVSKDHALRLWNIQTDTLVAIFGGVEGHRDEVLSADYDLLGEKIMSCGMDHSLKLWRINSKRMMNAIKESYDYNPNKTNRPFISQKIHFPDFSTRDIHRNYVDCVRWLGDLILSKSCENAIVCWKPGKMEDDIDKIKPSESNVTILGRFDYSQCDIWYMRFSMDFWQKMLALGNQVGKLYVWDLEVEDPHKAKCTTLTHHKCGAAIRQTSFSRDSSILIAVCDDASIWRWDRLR

IC50 (EED) [µM]	SMILES	IC50 (Pfeiffer cells) [µM]
0.00126	CN(C)[C@H]1CN(C2CCc3cccc(F)c32)C[C@@H]1c1cn(C)c2c(C(=O)N3CCC[C@H]3C(N)=O)cccc12 (mixture of isomers) [Example 117, rac-1-{3-[(3S,4R)-4-(dimethylamino)-1-(7-fluoro-2,3-dihydro-1H-inden-1-yl)pyrrolidin-3-yl]-1-methyl-1H-indole-7-carbonyl}-L-prolinamide]	0.111
0.00662	CC(=O)N1CCN(c2ccc([C@H]3CN(C4CCc5cccc(F)c54)C[C@@H]3N(C)C)cc2C)CC1 (mixture of isomers) [Example 60, rac-1-(4-{4-[(3S,4R)-4-(dimethylamino)-1-(7-fluoro-2,3-dihydro-1H-inden-1-yl)pyrrolidin-3-yl]-2-methylphenyl}piperazin-1-yl)ethan-1-one]	0.302
0.00191	CNC(=O)c1cccc2c([C@H]3CN(C4CCc5cccc(F)c54)C[C@@H]3N(C)C)cn(C)c12 (mixture of isomers) [Example 99, rac-3-[(3S,4R)-4-(dimethylamino)-1-(7-fluoro-2,3-dihydro-1H-inden-1-yl)pyrrolidin-3-yl]-N,1-dimethyl-1H-indole-7-carboxamide]	0.303
0.00224	CN(C)[C@@H]1CN(C2CCc3cccc(F)c32)C[C@H]1c1ccc(N2CCN(C(=O)C3COC3)CC2)nc1 (mixture of isomers) [Example 151, rac-(4-{5-[(3R,4S)-4-(dimethylamino)-1-(7-fluoro-2,3-dihydro-1H-inden-1-yl)pyrrolidin-3-yl]pyridin-2-yl}piperazin-1-yl)(oxetan-3-yl)methanone]	0.559
0.0024	CN(C)[C@@H]1CN(C2CCc3cccc(F)c32)C[C@H]1c1ccc(-c2cnn(CC(=O)N3CC(O)C3)c2)nc1 (mixture of isomers) [Example 150, rac-2-(4-{5-[(3R,4S)-4-(dimethylamino)-1-(7-fluoro-2,3-dihydro-1H-inden-1-yl)pyrrolidin-3-yl]pyridin-2-yl}-1H-pyrazol-1-yl)-1-(3-hydroxyazetidin-1-yl)ethan-1-one]	0.95
0.00384	CN(C)C(=O)CN1CCN(c2ccc([C@@H]3CN(C4CCc5cccc(F)c54)C[C@H]3N(C)C)cn2)CC1 (mixture of isomers) [Example 147, rac-2-(4-{5-[(3R,4S)-4-(dimethylamino)-1-(7-fluoro-2,3-dihydro-1H-inden-1-yl)pyrrolidin-3-yl]pyridin-2-yl}piperazin-1-yl)-N,N-dimethylacetamide]	0.535
0.0015	CN(C)[C@H]1CN(C2CCc3cccc(F)c32)C[C@@H]1c1cn(C)c2c(C(=O)NC3CC(O)C3)cccc12 (mixture of isomers) [Example 108, rac-3-[(3S,4R)-4-(dimethylamino)-1-(7-fluoro-2,3-dihydro-1H-inden-1-yl)pyrrolidin-3-yl]-N-(3-hydroxycyclobutyl)-1-methyl-1H-indole-7-carboxamide]	0.152
0.00199	CN(C)[C@@H]1CN(C2CCc3cccc(F)c32)C[C@H]1c1ccc(N2CCNCC2)cc1 (mixture of isomers) [Example 41, rac-(3S,4R)-1-(7-fluoro-2,3-dihydro-1H-inden-1-yl)-N,N-dimethyl-4-[4-(piperazin-1-yl)phenyl]pyrrolidin-3-amine]	0.188
0.0114	CN(C)[C@H]1CN(C2C[C@H](F)c3cccc(F)c32)C[C@@H]1c1ccc(S(C)(=O)=O)cc1 (mixture of isomers) [Example 30, rac-(3R,4S)-1-[(3S)-3,7-difluoro-2,3-dihydro-1H-inden-1-yl]-4-[4-(methanesulfonyl)phenyl]-N,N-dimethylpyrrolidin-3-amine]	3.1
0.00353	CC(=O)N1CCN(C(=O)c2ccc3c([C@H]4CN(C5CCc6cccc(F)c65)C[C@@H]4N(C)C)cn(C)c3c2)CC1 (mixture of isomers) [Example 123, rac-1-(4-{3-[(3S,4R)-4-(dimethylamino)-1-(7-fluoro-2,3-dihydro-1H-inden-1-yl)pyrrolidin-3-yl]-1-methyl-1H-indole-6-carbonyl}piperazin-1-yl)ethan-1-one]	1.53
0.00191	CN(C)[C@H]1CN(C2CCc3cccc(F)c32)C[C@@H]1c1cn(C)c2c(C(=O)N3CCN(c4cccnn4)CC3)cccc12 (mixture of isomers) [Example 137, rac-{3-[(3S,4R)-4-(dimethylamino)-1-(7-fluoro-2,3-dihydro-1H-inden-1-yl)pyrrolidin-3-yl]-1-methyl-1H-indol-7-yl}[4-(pyridazin-3-yl)piperazin-1-yl]methanone]	0.299
0.0153	CN(C)[C@@H]1CN(C2CCc3cccc(F)c32)C[C@H]1c1cn(C)c2c(C(=O)N3CC(F)C3)cccc12 (stereo partly drawn) [Example 104, {3-[(3R,4S)-4-(dimethylamino)-1-(7-fluoro-2,3-dihydro-1H-inden-1-yl)pyrrolidin-3-yl]-1-methyl-1H-indol-7-yl}(3-fluoroazetidin-1-yl)methanone]	
0.00115	CN(C)[C@@H]1CN(C2CCc3cccc(F)c32)C[C@H]1c1ccc(N2CCN(C(=O)OC(C)(C)C)CC2)cc1 (stereo partly drawn) [Example 50, tert-butyl 4-{4-[(3R,4S)-4-(dimethylamino)-1-(7-fluoro-2,3-dihydro-1H-inden-1-yl)pyrrolidin-3-yl]phenyl}piperazine-1-carboxylate]	
0.119	CN(C)[C@H]1CN([C@H]2CCc3cccc(F)c32)C[C@@H]1c1cn(C)c2cccnc12 (mixture of isomers) [Example 138, rac-(3R,4S)-1-[(1S)-7-fluoro-2,3-dihydro-1H-inden-1-yl]-N,N-dimethyl-4-(1-methyl-1H-pyrrolo[3,2-b]pyridin-3-yl)pyrrolidin-3-amine]	
0.0124	CN1CCN(C(=O)c2ccc([C@H]3CN(C4CCc5cccc(F)c54)C[C@@H]3N(C)C)cc2)CC1=O (mixture of isomers) [Example 51, rac-4-{4-[(3S,4R)-4-(dimethylamino)-1-(7-fluoro-2,3-dihydro-1H-inden-1-yl)pyrrolidin-3-yl]benzoyl}-1-methylpiperazin-2-one]	
0.0132	CC(=O)N1CCN(C(=O)c2ccc([C@H]3CN(C4CCc5cccc(F)c54)C[C@@H]3N(C)C)cc2)CC1 (mixture of isomers) [Example 55, rac-1-(4-{4-[(3S,4R)-4-(dimethylamino)-1-(7-fluoro-2,3-dihydro-1H-inden-1-yl)pyrrolidin-3-yl]benzoyl}piperazin-1-yl)ethan-1-one]	
0.000296	COC(=O)c1cccc2c([C@H]3CN(C4CCc5cccc(F)c54)C[C@@H]3N(C)C)cn(C)c12 (stereo partly drawn) [Example 84, methyl 3-[(3S,4R)-4-(dimethylamino)-1-(7-fluoro-2,3-dihydro-1H-inden-1-yl)pyrrolidin-3-yl]-1-methyl-1H-indole-7-carboxylate]	
0.0208	CN(C)[C@H]1CN(C2CCc3c(F)cccc32)C[C@@H]1c1cn(C)c2ccccc12 (mixture of isomers) [Example 90, rac-(3R,4S)-1-(4-fluoro-2,3-dihydro-1H-inden-1-yl)-N,N-dimethyl-4-(1-methyl-1H-indol-3-yl)pyrrolidin-3-amine]	
> 50	CN(C)[C@@H]1CN([C@H]2CC(O)c3cccc(F)c32)C[C@H]1c1ccc(S(C)(=O)=O)cc1 (stereo partly drawn) [Example 33, (3S)-3-{(3S,4R)-3-(dimethylamino)-4-[4-(methanesulfonyl)phenyl]pyrrolidin-1-yl}-4-fluoro-2,3-dihydro-1H-inden-1-ol]	
0.00184	Cc1cc([C@H]2CN(C3CCc4cccc(F)c43)C[C@@H]2N(C)C)ccc1Br (mixture of isomers) [Example 27, rac-(3R,4S)-4-(4-bromo-3-methylphenyl)-1-(7-fluoro-2,3-dihydro-1H-inden-1-yl)-N,N-dimethylpyrrolidin-3-amine]	
0.0707	COC(=O)c1ccc([C@H]2CN(C3CCc4cccc(Cl)c43)C[C@@H]2N(C)C)cc1 (mixture of isomers) [Example 21, rac-methyl 4-[(3S,4R)-1-(7-chloro-2,3-dihydro-1H-inden-1-yl)-4-(dimethylamino)pyrrolidin-3-yl]benzoate]	
0.0101	CN(C)[C@H]1CN([C@H]2CCc3ccccc32)C[C@@H]1c1ccc(S(C)(=O)=O)cc1 [Example 9, (3R,4S)-1-[(1S)-2,3-dihydro-1H-inden-1-yl]-4-[4-(methanesulfonyl)phenyl]-N,N-dimethylpyrrolidin-3-amine]	
0.0584	Cc1cccc2c1C(N1C[C@H](c3cn(C)c4ccccc34)[C@@H](N(C)C)C1)CC2 (stereo partly drawn) [Example 100, (3R,4S)-N,N-dimethyl-1-(7-methyl-2,3-dihydro-1H-inden-1-yl)-4-(1-methyl-1H-indol-3-yl)pyrrolidin-3-amine]	
0.0121	CN(C)[C@H]1CN(C2CCc3cccc(F)c32)C[C@@H]1C1CCOCC1 (mixture of isomers) [Example 144, rac-(3R,4S)-1-(7-fluoro-2,3-dihydro-1H-inden-1-yl)-N,N-dimethyl-4-(oxan-4-yl)pyrrolidin-3-amine]	
0.0123	CN(C)[C@H]1CN(C2CCc3cccc(F)c32)C[C@@H]1c1ccc(C(=O)N2CCN(S(C)(=O)=O)CC2)cc1 (mixture of isomers) [Example 53, rac-{4-[(3S,4R)-4-(dimethylamino)-1-(7-fluoro-2,3-dihydro-1H-inden-1-yl)pyrrolidin-3-yl]phenyl}[4-(methanesulfonyl)piperazin-1-yl]methanone]	
0.104	CN(C)[C@H]1CN([C@H]2C[C@@H](O)c3cccc(F)c32)C[C@@H]1c1ccc(S(C)(=O)=O)cc1 (mixture of isomers) [Example 34, rac-(1R,3S)-3-{(3R,4S)-3-(dimethylamino)-4-[4-(methanesulfonyl)phenyl]pyrrolidin-1-yl}-4-fluoro-2,3-dihydro-1H-inden-1-ol]	
